Data reported in patent US20240158418A1 (C4 Therapeutics, Inc., priority 2021, published 2024).
Like-named read-outs stand apart in the source and are kept apart here.

What was measured:
[1] = test system: BaF3 cells expressing EGFR L858R-T790M-L792H; assay: Ba/F3 EGFR cell viability (CellTiter-Glo), L858R-T790M-L792H; type: cell-based; conditions: Mus musculus, read-out: CTGlo (GI50)
From the text: (§1) RPMI 1640 media, cell culture flasks, and 384-well microplates were purchased from VWR (Radnor, PA, USA). Fetal bovine serum (FBS) was purchased from Life Technologies (Carlsbad, CA, USA) and CellTiter-Glo® was purchased from Promega (Madison, WI, USA). The Ba/F3 parental cell line was purchased from CrownBio (Santa Clara, CA). BaF3 cell lines ectopically expressing the EGFR mutations L858R, L858R-T790M, L858R-C797S, and L858R-T790M-C797S were purchased from CrownBio and EGFR mutations L858R-L718Q, L858R-T790M-L718Q, L858R-L792H, and L858R-T790M-L792H, were purchased from Signosis (Santa Clara, CA).
(§2) Cell viability was assessed based on the quantification of ATP using the CellTiter-Glo® assay (Promega, Madison, WI, USA). To determine the effect of compounds on cell viability, all Ba/F3 cell lines were plated at a cell density of 2000 cells/well in 384-well plates using RPMI 1640+10% FBS and treated with compounds of interest using a 10-point half-log dilution series in duplicate for 72 hours, with the highest dose set at […]. CellTiter-Glo® reagent was then added and luminescence signals were measured using an EnVision™ Multimode plate reader (Perkin Elmer, Santa Clara, CA). For data normalization, cells untreated with the test compounds at Time=72 hours were set to 100% (equivalent to maximal cell growth after 72 hours); cells untreated with the test compounds at Time=0 hours were set to 0% (equivalent to cytostasis); and media-only wells were set to −100% (equivalent to complete cytotoxicity). % Viability was determined by normalizing the signal with positive and DMSO treated negative controls on the same microtiter plate. The half-maximal inhibition of cell growth (GI50) is computed from where the fitted curve crosses 50% while the half-maximal lethal dose (LD50) is computed from where the fitted curve crosses −50%.

[2] = test system: BaF3 cells expressing EGFR L858R-L718Q; assay: Ba/F3 EGFR cell viability (CellTiter-Glo), L858R-L718Q; type: cell-based; conditions: Mus musculus, read-out: CTGlo (GI50)
From the text: as §1, §2

[3] = test system: BaF3 cells expressing EGFR L858R-T790M-L718Q; assay: Ba/F3 EGFR cell viability (CellTiter-Glo), L858R-T790M-L718Q; type: cell-based; conditions: Mus musculus, read-out: CTGlo (GI50)
From the text: as §1, §2

EGFR L858R-T790M = target: T1, EGFR L858R-T790M (Homo sapiens, UniProt P00533, L858R/T790M); assay: EGFR degradation, Total EGFR (L858R-specific) HTRF, NCI-H1975; type: cell-based; conditions: 6 hours
T1 construct: NCI-H1975 (harboring EGFR heterozygous L858R-T790M mutations); host or cells: NCI-H1975
Method in brief: (§3)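 HTRF read-outs: pY1068 phospho-EGFR for IC50; total EGFR (pan-EGFR in A431, L858R-specific in mutant lines) for DC50. Compounds were titrated 11 points, half-log, from 10 μM in duplicate onto cells in 10% FBS RPMI, incubated 6 h at 37°C.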

[4] = test system: BaF3 cells expressing EGFR L858R-L792H; assay: Ba/F3 EGFR cell viability (CellTiter-Glo), L858R-L792H; type: cell-based; conditions: Mus musculus, read-out: CTGlo (GI50)
From the text: as §1, §2

pY1068 EGFR L858R-T790M = target: T2, pY1068 EGFR L858R-T790M (Homo sapiens, UniProt P00533, L858R/T790M); assay: Phospho-EGFR (pY1068) inhibition HTRF, NCI-H1975; type: cell-based; conditions: 6 hours, read-out: pEGFR IC50
T2 construct: NCI-H1975 (harboring EGFR heterozygous L858R-T790M mutations); host or cells: NCI-H1975
From the text: (§4) NCI-H1975 (harboring EGFR heterozygous L858R-T790M mutations) and NCI-H3255 (harboring EGFR heterozygous L858R mutation) were purchased from ATCC and NCI, respectively. NCI-H1975+CS (harboring EGFR heterozygous L858R-T790M-C797S mutations) was generated using CRISPR technology to introduce the additional C797S mutation by Horizon Discovery. A431 (harboring EGFR wildtype) was purchased from ATCC. RPMI 1640 no-phenol red medium and fetal bovine serum (FBS) were purchased from Gibco (Grand Island, NY, USA). Cell culture flasks and 384-well microplates were acquired from VWR (Radnor, PA, USA). Phosphorylated (pY1068) EGFR and Total EGFR (using L858R-specific detection antibody and pan-EGFR antibody for EGFR mutant cell lines and EGFR wild-type cell lines, respectively) HTRF assay kits were purchased from Cisbio (Bedford, MA, USA).
(§5) Degradation of EGFR protein containing L858R mutation or wild-type was determined based on quantification of FRET signal using a Total EGFR (L858R-specific or pan-EGFR detecting) HTRF assay kit. Phospho-EGFR (pEGFR) inhibition was determined based on quantification of FRET signal using a pY1068 EGFR HTRF assay kit. In separate assay plates, test compounds were added to the 384-well plate from a top concentration of 10 μM with 11 points, half log titration in duplicates. For each assay, 12.5 uL of cells suspended in assay media (RPMI 1640 no-phenol red medium+10% FBS) at cell densities indicated for each cell line in Table 8 below were dispensed using a multi-channel pipette to 384-well low volume white HTRF microplates containing a duplicate concentration range of test compounds and DMSO controls. The plates were kept at 37° C. with 5% CO2 for 6 hours and then incubated with either phospho EGFR or Total EGFR HTRF detection antibodies according to the cell line and EGFR mutant being assayed. Cells treated in the absence of the test compound were the negative control. Positive control was set by wells containing all reagents but no cells. FRET signal was acquired on EnVision™ Multilabel Reader (PerkinElmer, Santa Clara, CA, USA). Compound concentration that achieves 50% degradation and inhibition was reported as DC50 and IC50, respectively.

[5] = test system: BaF3 cells expressing EGFR L858R-T790M-C797S; assay: Ba/F3 EGFR cell viability (CellTiter-Glo), L858R-T790M-C797S; type: cell-based; conditions: Mus musculus, read-out: CTGlo (GI50)
From the text: as §1, §2

EGFR WT = target: T3, EGFR WT (Homo sapiens, UniProt P00533); assay: EGFR degradation, Total EGFR (pan-EGFR) HTRF, A431; type: cell-based; conditions: A431 (wild-type), 6 hours; read-out: tEGFR DC50
T3 construct: A431 (harboring EGFR wildtype) was purchased from ATCC; host or cells: A431
From the text: as §4, §5

[6] = target: T4, pY1068 EGFR L858R-T790M-C797S (Homo sapiens, UniProt P00533, C797S/L858R/T790M); assay: Phospho-EGFR (pY1068) inhibition HTRF, NCI-H1975+CS; type: cell-based; conditions: 6 hours, read-out: pEGFR IC50
T4 construct: generated using CRISPR technology to introduce the additional C797S mutation by Horizon Discovery; host or cells: NCI-H1975+CS (CRISPR knock-in of C797S)
From the text: as §4, §5

EGFR L858R = EGFR L858R (Homo sapiens, UniProt P00533, L858R); assay: EGFR degradation, Total EGFR (L858R-specific) HTRF, NCI-H3255; type: cell-based; design: NCI-H3255 (harboring EGFR heterozygous L858R mutation); host or cells: NCI-H3255; conditions: H3255 (L858R), 6 hours; read-out: tEGFR DC50
Method in brief: as §3

EGFR L858R-T790M-C797S = target: T5, EGFR L858R-T790M-C797S (Homo sapiens, UniProt P00533, C797S/L858R/T790M); assay: EGFR degradation, Total EGFR (L858R-specific) HTRF, NCI-H1975+CS; type: cell-based; conditions: H1975 + CS (L858R-T790M-C797S), 6 hours; read-out: tEGFR DC50
T5 construct: generated using CRISPR technology to introduce the additional C797S mutation by Horizon Discovery; host or cells: NCI-H1975+CS (CRISPR knock-in of C797S)
Method in brief: as §3

pY1068 EGFR L858R = target: T6, pY1068 EGFR L858R (Homo sapiens, UniProt P00533, L858R); assay: Phospho-EGFR (pY1068) inhibition HTRF, NCI-H3255; type: cell-based; conditions: 6 hours, read-out: pEGFR IC50
T6 construct: NCI-H3255 (harboring EGFR heterozygous L858R mutation); host or cells: NCI-H3255
From the text: as §4, §5

[7] = test system: engineered triple mutant EGFR (L858R-T790M-C797S) BaF3 tumors; assay: BaF3 triple mutant EGFR allograft efficacy; type: in vivo, female BALB/c nude mice; conditions: Compound 1 or 2 at 20, 50, 100 mg/kg/day PO BID; osimertinib 25 mg/kg/day PO QD; 14 days
Description: Each Compound was administered BID (twice a day) orally (PO).
Tumor volume was measured twice weekly in two dimensions using calipers, and volume (mm^3) was calculated using the formula: V=0.5 a×b^2 where a and b are the long and short diameters of the tumor in mm, respectively. […] Treatment began on Day 0 with established subcutaneous BaF3 tumors with a mean tumor volume (MTV) of 108 mm^3.
Body weight and MTV were measured on a 2× weekly schedule. Statistical analysis was performed using a one-way ANOVA followed by Dunnett's multiple comparison test. Data are expressed as MTV±SEM.

[8] = H1975 (L858R-T790M), read-out: tEGFR DC50
[9] = Table 9A, NCI-H1975 cells, Total EGFR HTRF, read-out: H1975 EGFR DC50

T1 sequence (P00533 25-1210 T790M/L858R): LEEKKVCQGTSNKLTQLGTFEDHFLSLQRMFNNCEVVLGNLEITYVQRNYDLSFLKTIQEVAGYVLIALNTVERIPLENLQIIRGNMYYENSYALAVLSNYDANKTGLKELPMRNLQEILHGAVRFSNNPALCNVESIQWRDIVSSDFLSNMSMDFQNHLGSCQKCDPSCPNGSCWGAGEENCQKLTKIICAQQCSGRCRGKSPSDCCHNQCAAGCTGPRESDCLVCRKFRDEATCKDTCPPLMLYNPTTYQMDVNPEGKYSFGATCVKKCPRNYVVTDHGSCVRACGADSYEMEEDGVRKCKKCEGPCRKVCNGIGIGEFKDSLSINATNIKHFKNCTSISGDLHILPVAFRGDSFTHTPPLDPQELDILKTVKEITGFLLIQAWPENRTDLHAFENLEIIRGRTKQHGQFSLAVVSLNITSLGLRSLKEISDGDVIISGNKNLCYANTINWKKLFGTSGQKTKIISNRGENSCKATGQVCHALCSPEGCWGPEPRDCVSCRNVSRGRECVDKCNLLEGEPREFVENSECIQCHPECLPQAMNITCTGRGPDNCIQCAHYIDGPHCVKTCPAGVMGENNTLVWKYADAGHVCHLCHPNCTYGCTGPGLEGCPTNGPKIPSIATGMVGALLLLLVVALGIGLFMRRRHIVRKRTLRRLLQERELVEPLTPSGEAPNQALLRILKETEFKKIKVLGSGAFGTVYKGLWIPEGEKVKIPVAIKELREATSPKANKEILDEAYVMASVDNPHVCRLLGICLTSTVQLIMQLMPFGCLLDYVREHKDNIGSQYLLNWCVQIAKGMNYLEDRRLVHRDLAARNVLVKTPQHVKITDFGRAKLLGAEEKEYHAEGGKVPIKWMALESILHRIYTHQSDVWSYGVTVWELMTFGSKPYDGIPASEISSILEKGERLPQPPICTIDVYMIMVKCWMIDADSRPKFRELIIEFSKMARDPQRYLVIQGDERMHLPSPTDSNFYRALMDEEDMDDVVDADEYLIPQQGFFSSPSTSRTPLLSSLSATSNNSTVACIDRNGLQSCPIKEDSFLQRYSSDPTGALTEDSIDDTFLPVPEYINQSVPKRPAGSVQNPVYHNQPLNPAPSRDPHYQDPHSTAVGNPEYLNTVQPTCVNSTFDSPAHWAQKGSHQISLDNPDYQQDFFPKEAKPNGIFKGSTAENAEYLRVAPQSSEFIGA
T2 sequence (P00533 25-1210 T790M/L858R): as above
T3 sequence (P00533 25-1210): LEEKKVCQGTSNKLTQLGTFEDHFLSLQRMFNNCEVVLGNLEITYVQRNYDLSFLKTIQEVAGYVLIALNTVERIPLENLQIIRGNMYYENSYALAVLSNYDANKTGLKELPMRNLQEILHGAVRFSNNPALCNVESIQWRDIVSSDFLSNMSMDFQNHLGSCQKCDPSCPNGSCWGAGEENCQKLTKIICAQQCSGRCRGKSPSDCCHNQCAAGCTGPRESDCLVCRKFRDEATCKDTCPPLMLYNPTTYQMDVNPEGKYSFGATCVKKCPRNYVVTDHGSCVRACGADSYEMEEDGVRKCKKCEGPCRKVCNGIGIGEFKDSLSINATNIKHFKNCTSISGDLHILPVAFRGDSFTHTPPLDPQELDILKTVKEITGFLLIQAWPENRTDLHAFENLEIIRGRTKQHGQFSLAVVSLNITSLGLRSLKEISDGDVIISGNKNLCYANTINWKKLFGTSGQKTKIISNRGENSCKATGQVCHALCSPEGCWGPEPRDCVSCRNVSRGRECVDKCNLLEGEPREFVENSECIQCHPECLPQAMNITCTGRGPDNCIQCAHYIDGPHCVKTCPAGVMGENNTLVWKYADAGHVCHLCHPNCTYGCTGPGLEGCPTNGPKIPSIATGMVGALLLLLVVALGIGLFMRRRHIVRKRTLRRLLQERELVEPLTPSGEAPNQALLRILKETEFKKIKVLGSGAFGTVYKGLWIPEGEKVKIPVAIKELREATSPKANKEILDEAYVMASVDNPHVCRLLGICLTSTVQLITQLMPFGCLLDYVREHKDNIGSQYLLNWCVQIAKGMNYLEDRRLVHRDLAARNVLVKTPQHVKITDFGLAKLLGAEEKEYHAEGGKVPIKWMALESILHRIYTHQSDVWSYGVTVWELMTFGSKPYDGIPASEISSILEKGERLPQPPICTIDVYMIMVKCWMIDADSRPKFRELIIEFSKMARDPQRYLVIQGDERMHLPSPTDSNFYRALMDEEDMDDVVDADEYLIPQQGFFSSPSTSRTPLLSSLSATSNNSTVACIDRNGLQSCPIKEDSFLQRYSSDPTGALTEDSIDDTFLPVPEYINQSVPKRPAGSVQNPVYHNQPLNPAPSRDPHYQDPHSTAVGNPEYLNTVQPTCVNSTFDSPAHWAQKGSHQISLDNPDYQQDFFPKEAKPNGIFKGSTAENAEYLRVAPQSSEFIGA
T5 sequence (P00533 25-1210 T790M/C797S/L858R): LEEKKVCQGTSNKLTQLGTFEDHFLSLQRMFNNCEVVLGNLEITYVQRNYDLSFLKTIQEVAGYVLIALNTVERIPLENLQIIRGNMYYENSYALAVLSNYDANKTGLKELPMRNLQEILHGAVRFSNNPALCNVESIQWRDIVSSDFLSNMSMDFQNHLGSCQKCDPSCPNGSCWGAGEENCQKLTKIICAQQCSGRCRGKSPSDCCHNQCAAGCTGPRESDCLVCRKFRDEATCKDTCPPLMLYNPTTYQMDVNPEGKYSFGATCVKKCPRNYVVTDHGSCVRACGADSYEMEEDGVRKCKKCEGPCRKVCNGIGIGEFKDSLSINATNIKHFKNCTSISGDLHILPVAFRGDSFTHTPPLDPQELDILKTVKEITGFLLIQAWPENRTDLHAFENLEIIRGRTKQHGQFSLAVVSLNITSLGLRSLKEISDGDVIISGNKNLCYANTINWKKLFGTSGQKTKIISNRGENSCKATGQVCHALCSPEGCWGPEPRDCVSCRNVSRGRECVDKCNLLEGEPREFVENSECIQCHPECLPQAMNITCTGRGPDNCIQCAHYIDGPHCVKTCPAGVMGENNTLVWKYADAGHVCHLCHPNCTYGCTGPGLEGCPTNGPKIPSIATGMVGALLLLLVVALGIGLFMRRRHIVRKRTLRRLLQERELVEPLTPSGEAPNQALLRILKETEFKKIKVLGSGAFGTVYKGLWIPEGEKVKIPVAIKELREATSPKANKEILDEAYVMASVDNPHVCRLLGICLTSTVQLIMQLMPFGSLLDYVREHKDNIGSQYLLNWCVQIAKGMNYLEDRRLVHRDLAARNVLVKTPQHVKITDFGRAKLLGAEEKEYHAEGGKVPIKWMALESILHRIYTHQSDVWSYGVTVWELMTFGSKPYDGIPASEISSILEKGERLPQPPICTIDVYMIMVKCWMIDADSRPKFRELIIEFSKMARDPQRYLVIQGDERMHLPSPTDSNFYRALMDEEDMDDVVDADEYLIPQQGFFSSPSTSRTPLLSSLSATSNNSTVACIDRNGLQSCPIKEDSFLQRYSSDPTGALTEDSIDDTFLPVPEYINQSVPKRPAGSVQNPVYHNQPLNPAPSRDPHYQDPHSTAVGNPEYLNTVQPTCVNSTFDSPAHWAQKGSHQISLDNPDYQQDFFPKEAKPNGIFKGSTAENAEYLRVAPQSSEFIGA

Compound	GI50 [1] [nM]	GI50 [2] [nM]	GI50 [3] [nM]	DC50 (EGFR L858R-T790M; [8]) [nM]	DC50 (EGFR L858R-T790M; [9]) [nM]	GI50 [4] [nM]	IC50 (pY1068 EGFR L858R-T790M) [nM]	GI50 [5] [nM]	DC50 (EGFR WT) [nM]	IC50 [6] [nM]	DC50 (EGFR L858R) [nM]	DC50 (EGFR L858R-T790M-C797S) [nM]	IC50 (pY1068 EGFR L858R) [nM]	efficacy on BaF3 tumor volume [7]
O=C1CCC(Nc2ccc(N3CCC(O)(CC(=O)N4CC5(C4)CN(c4ccc(-c6cc(F)c7c(c6)C(=O)N(C(C(=O)Nc6nccs6)c6ncn8c6CCC8)C7)cc4)C5)CC3)c(Cl)c2)C(=O)N1 (single isomer, unassigned; isomer 1) [Compound 7, 2-(6-(4-(6-(2-(1-(2-chloro-4-((2,6-dioxopiperidin-3-yl)amino)phenyl)-4-hydroxypiperidin-4-yl)acetyl)-2,6-diazaspiro[3.3]heptan-2-yl)phenyl)-4-fluoro-1-oxoisoindolin-2-yl)-2-(6,7-dihydro-5H-pyrrolo[1,2-c]imidazol-1-yl)-N-(thiazol-2-yl)acetamide, isomer 1]	23	17	45	15	< 50	7	17	10	–	–	–	–	–	–
Cn1nc(N2CCC(=O)NC2=O)c2ccc(C3CCN(CC(=O)N4CC5(C4)CN(c4ccc(-c6cc(F)c7c(c6)C(=O)N(C(C(=O)Nc6ccccn6)c6ncn8c6CCC8)C7)cc4)C5)CC3(F)F)cc21 (centres unmarked) [Compound 5, 2-(6,7-dihydro-5H-pyrrolo[1,2-c]imidazol-1-yl)-2-[6-[4-[2-[2-[4-[3-(2,4-dioxohexahydropyrimidin-1-yl)-1-methyl-indazol-6-yl]-3,3-difluoro-1-piperidyl]acetyl]-2,6-diazaspiro[3.3]heptan-6-yl]phenyl]-4-fluoro-1-oxo-isoindolin-2-yl]-N-(2-pyridyl)acetamide]	–	–	–	–	< 50	–	12	–	> 10000	22	22	23	19	–
C=CC(=O)Nc1cc(Nc2nccc(-c3cn(C)c4ccccc34)n2)c(OC)cc1N(C)CCN(C)C [osimertinib, reference compound]	–	–	–	–	–	–	–	–	–	–	–	–	–	minimal efficacy
O=C1CC[C@H](Nc2ccc(N3CCC(O)(CC(=O)N4CCC5(CC4)CN(c4ccc(-c6cc(F)c7c(c6)C(=O)N(C(C(=O)Nc6nccs6)c6ncn8c6CCC8)C7)cc4)C5)CC3)c(F)c2)C(=O)N1 (stereo partly drawn) [Compound 9, 2-(6,7-dihydro-5H-pyrrolo[1,2-c]imidazol-1-yl)-2-[6-[4-[7-[2-[1-[4-[[(3S)-2,6-dioxo-3-piperidyl]amino]-2-fluoro-phenyl]-4-hydroxy-4-piperidyl]acetyl]-2,7-diazaspiro[3.5]nonan-2-yl]phenyl]-4-fluoro-1-oxo-isoindolin-2-yl]-N-thiazol-2-yl-acetamide]	33	23	82	24	< 50	10	30	16	–	–	–	–	–	–
O=C1CCN(c2ccc(N3CCC(O)(CC(=O)N4CC5(C4)CN(c4ccc(-c6cc(F)c7c(c6)C(=O)N(C(C(=O)Nc6nccs6)c6ncn8c6CCC8)C7)cc4)C5)CC3)c(Cl)c2)C(=O)N1 (centres unmarked) [Compound 8, 2-[6-[4-[2-[2-[1-[2-chloro-4-(2,4-dioxohexahydropyrimidin-1-yl)phenyl]-4-hydroxy-4-piperidyl]acetyl]-2,6-diazaspiro[3.3]heptan-6-yl]phenyl]-4-fluoro-1-oxo-isoindolin-2-yl]-2-(6,7-dihydro-5H-pyrrolo[1,2-c]imidazol-1-yl)-N-thiazol-2-yl-acetamide]	45	2020	403	23	< 50	213	22	13	–	–	–	–	–	–
